# Tests used:
# [1] = Lipophilicity determination by gradient HPLC (log k′g); format: physicochemical; conditions: HPLC gradient 1, RP-18, triethylammonium phosphate buffer pH 6.5 / methanol (ion pair chromatography)
# Method: Gradient 1: Stationary phase: Polygosil 60-10, RP-18; 250×4 mm (Macherey & Nagel, DOren, Germany). Mobile phase A: 10 ml 1 M triethylammonium phosphate buffer (TEAP), pH 6.5+990 ml methanol. Mobile phase B: 10 ml 1 M TEAP, pH 6.5+990 ml H2O. Time program: 0 min: 100% B; 60 min: 100% A; 65 min: 100% A; 70 min: 100% B; 90 min: 100% B. Flow rate: 1.0 ml/min.
# The octanol/water coefficient Log P is the commonly accepted indicator for the expected property of a given chemical entity to pass cellular membranes by passive diffusion. However, its practical determination for polar compounds such as multiply charged nucleotides is difficult in reality. Often, the information about membrane permeability must be received by fragmental analysis or other calculations.
# Given this fact, an established HPLC method is used here, which is based on the measurement of retention on a reversed phase column^7. In contrast to Log P, this method yields the indicator log k′g, which allows for a ranking of different nucleotides of the same charge according to their lipophilicity.
# Since CDNs are twofold negatively charged molecules which are only very insufficiently retarded on a reversed phase HPLC column, the determinations were performed in presence of the lipophilic triethylammonium cation (ion pair chromatography).
# According to the established method^7 HPLC gradient 1 was used for the determination of lipophilicity.
# STING signalling pathway = assay: Interferon-β promoter SEAP reporter assay in THP1-Blue cells; format: cell-based, human; conditions: 0, 10, 20, 40 μg/ml, 24 hours
# Method: Legend for Synthesis 4: THP1-Blue™ cells ((THP1-ISG); InvivoGen, catalogue number: thp-isg; concentration: 5×10^5/ml, 180 μl/well (96-well-plate) were incubated with inventive CDNs in different concentrations (0 μg/ml; 10 μg/ml; 20 μg/ml; 40 μg/ml) in medium (RPMI-1640, 2 mM L-glutamine, 1.5 g/I sodium bicarbonate, 4.5 g/I glucose, 10 mM HEPES, 1 mM sodium pyruvate, 10% FCS, 100 μg/ml Zeocin™, 110 μg/ml Normocin™, Pen-Strep 50 U/ml) for 24 hours at 37° C. in 5% CO2. The quantification was performed with SEAP detection reagent QUANTI-Blue™ (InvivoGen; catalogue number: rep-qb1; incubation time: 30 min at 37° C. in 5% CO2) by optical density (OD) determination at 625 nm.
# Legend for Synthesis 5: THP1-Blue™ cells ((THP1-ISG); InvivoGen, catalogue number: thp-isg; concentration: 5×10^5/ml, 180 μl/well (96-well-plate) and THP1 Dual™ KO STING cells ((STING KO) InvivoGen, catalogue number: thpd-kostg; concentration: 5×10^5/ml, 180 μl/well (96-well-plate) were incubated with inventive CDNs (concentration 40 μg/ml each) in medium (RPMI-1640, 2 mM L-glutamine, 1.5 g/I sodium bicarbonate, 4.5 g/I glucose, 10 mM HEPES, 1 mM sodium pyruvate, 10% FCS, 100 μg/mL Zeocin™, 110 μg/mL Normocin™, Pen-Strep 50 U/mL) for 24 hours at 37° C. in 5% CO2. For incubations with THP1 Dual™ KO STING cells, 10 μg/ml of blasticidin were added to the medium. Quantification was performed with SEAP detection reagent QUANTI-Blue™ (InvivoGen; catalogue number: rep-qb1; incubation time: 15 min at 37° C. in 5% CO2) by optical density (OD) determination at 625 nm.
# Cell line: THP1-Blue™ cells (InvivoGen, catalogue number: thp-isg) are derived from THP1 cells. THP1-Blue™ cells in a cell culture dish are stimulated by the administration of a CDN according to the invention or a buffer control.
# In these genetically modified cells, the gene for secreted embryonic alkaline phosphatase (SEAP) is under the control of an interferon-β promoter.
# After stimulation of the cells with an inventive CDN, the supernatant of the cell culture was removed and the enzymatic activity of SEAP was measured photometrically in a colorimetric assay by measuring the extinction at 625 nm (optical density; OD 625 nm).
# Administration of an inventive CDN induces an increase in the activity of SEAP, which is a measure of the activity of the STING signalling pathway.
# [2] = tested on: STING-induced dimerisation and phosphorylation of IRF3, STING-induced phosphorylation of TBK1; assay: STING-induced dimerisation and phosphorylation of IRF3 and phosphorylation of TBK1, Western Blot of THP-1 cell lysate; format: cell-based, human; conditions: THP-1 cells, native gel and SDS-PAGE Western Blot, versus buffer control
# Method: Cell line: THP-1 cells (Sigma Cat. No. 88081201-1VL) were isolated from peripheral blood of a patient with acute leukaemia.
# After application of an inventive CDN or a buffer control to THP1 cells in a culture dish a cell lysate is prepared, of which one part is applied to a native polyacrylamide gel and the other part to two denaturing polyacrylamide gels (SDS-PAGE). The developed gels are analysed with Western Blot technique.
# In case of the native gel an IRF3 antibody is used.
# The presence of an inventive CDN results in the formation of a second band, showing a running behaviour, which corresponds to the doubled molecular weight of IRF3. This band represents the dimer of IRF3, that has been formed under the influence of an inventive CDN.
# In case of the two denaturing gels, either an antibody against phosphorylated IRF3 or an antibody against phosphorylated TBK1 is used. In the buffer control for each of the gels only a very weak band is detected. After application of an inventive CDN, the intensities of these bands are much more pronounced. This increase of intensity reflects the phosphorylation of IRF3 and of TBK1, respectively, induced by the inventive CDNs. Both, the dimerisation of IRF3 and the detected phosphorylations are a direct result of STING activation.
smiles,measurement,setting,value
"Nc1nc2c(ncn2[C@@H]2O[C@@H]3COP(=O)(S)OC4C(O)[C@H](n5cnc6ccccc65)O[C@@H]4COP(=O)(S)OC2C3O)c(=O)[nH]1 (single isomer, unassigned) [Compound 23, MI1, Cyclic (guanosine-(2′→5′)-monophosphorothioate-benzimidazole riboside-(3′→5′)-monophosphorothioate)]",log k′g,"[1]; listed as 23, MI1",1.509
"Nc1nc2c(ncn2[C@@H]2O[C@@H]3COP(=O)(S)OC4C(O)[C@H](n5cnc6ccccc65)O[C@@H]4COP(=O)(S)OC2C3O)c(=O)[nH]1 (single isomer, unassigned) [Compound 23, MI2, Cyclic (guanosine-(2′→5′)-monophosphorothioate-benzimidazole riboside-(3′→5′)-monophosphorothioate)]","SEAP activity, elevated OD at 625 nm, concentration-dependent",STING signalling pathway,positive
same,log k′g,"[1]; listed as 23, MI2",1.658
"Nc1nc2c(ncn2[C@@H]2O[C@@H]3COP(=O)(S)OC4C(O)[C@H](n5cnc6cc(Cl)c(Cl)cc65)O[C@@H]4COP(=O)(S)OC2C3O)c(=O)[nH]1 (single isomer, unassigned) [Compound 29, MI1, Cyclic (guanosine-(2′→5′)-monophosphorothioate-5,6-dichlorobenzimidazole riboside-(3′→5′)-monophosphorothioate)]",log k′g,"[1]; listed as 29, MI1",2.318
"Nc1ncnc2c1ncn2[C@@H]1O[C@@H]2COP(=O)(S)OC3C(O)[C@@H](COP(=O)(S)OC2C1O)O[C@H]3n1cnc2ccccc21 (single isomer, unassigned) [Compound 98, MI2, Cyclic (adenosine-(3′→5′)-monophosphorothioate-benzimidazole riboside-(2′→5′)-monophosphorothioate)]",log k′g,"[1]; listed as 98, MI2",1.584
"Nc1nc2c(ncn2[C@@H]2O[C@@H]3COP(=O)(O)O[C@H]4[C@@H](O)[C@H](n5cnc6c(N)ncnc65)O[C@@H]4COP(=O)(O)O[C@@H]2[C@@H]3O)c(=O)[nH]1 [2′,3′-cGAMP, reference compound]",log k′g,[1],0.766
"O=P1(O)OC[C@H]2O[C@@H](n3cnc4ccccc43)C(O)C2OP(=O)(O)OC[C@H]2O[C@@H](n3cnc4ccccc43)C(O)C2O1 (stereo partly shown) [Compound 1, cyclic (benzimidazole riboside- (3′ −> 5′)-monophosphate- benzimidazole riboside-(3′ −> 5′)- monophosphate)]",log k′g,[1],1.732
"O=P1(S)OC[C@H]2O[C@@H](n3cnc4ccccc43)C(O)C2OP(=O)(S)OC[C@H]2O[C@@H](n3cnc4ccccc43)C(O)C2O1 (stereo partly shown) [Compound 4, cyclic (benzimidazole riboside- (3′ −> 5′)-monophosphorothioate- benzimidazole riboside-(3′ −> 5′)- monophosphorothioate)]","STING-induced dimerisation of IRF3, phosphorylation of IRF3 and phosphorylation of TBK1",[2],positive
"O=P1(O)OC[C@H]2O[C@@H](n3cnc4cc(Cl)c(Cl)cc43)C(O)C2OP(=O)(O)OC[C@H]2O[C@@H](n3cnc4cc(Cl)c(Cl)cc43)C(O)C2O1 (stereo partly shown) [Compound 7, cyclic (5,6-dichlorobenzimidazole riboside-(3′ −> 5′)-monophosphate-5,6-dichlorobenzimidazole riboside-(3′ −> 5′)-monophosphate)]",log k′g,[1],2.970
"O=P1(S)OC[C@H]2O[C@@H](n3cnc4cc(Cl)c(Cl)cc43)C(O)C2OP(=O)(S)OC[C@H]2O[C@@H](n3cnc4cc(Cl)c(Cl)cc43)C(O1)C2O (stereo partly shown) [Compound 11, cyclic (5,6-dichlorobenzimidazole riboside-(2′ −> 5′)-monophosphorothioate-(5,6-dichlorobenzimidazole riboside-(3′ −> 5′)-monophosphorothioate)]","STING-induced dimerisation of IRF3, phosphorylation of IRF3 and phosphorylation of TBK1",[2],positive
"Nc1nc2c(ncn2[C@@H]2O[C@@H]3COP(=O)(S)OC4C(O)[C@H](n5cnc6cc(Cl)c(Cl)cc65)O[C@@H]4COP(=O)(S)OC2C3O)c(=O)[nH]1 (stereo partly shown) [Compound 29, cyclic (guanosine-(2′ −> 5′)-monophosphorothioate-5,6-dichlorobenzimidazole riboside-(3′ −> 5′)-monophosphorothioate)]","STING-induced dimerisation of IRF3, phosphorylation of IRF3 and phosphorylation of TBK1",[2],positive
"Nc1nc2c(ncn2[C@@H]2O[C@@H]3COP(=O)(S)OC4C(O)[C@@H](COP(=O)(S)OC2C3O)O[C@H]4n2cnc3cc(Cl)c(Cl)cc32)c(=O)[nH]1 (stereo partly shown) [Compound 30, cyclic (guanosine-(2′ −> 5′)-monophosphorothioate-5,6-dichlorobenzimidazole riboside-(2′ −> 5′)-monophosphorothioate)]","STING-induced dimerisation of IRF3, phosphorylation of IRF3 and phosphorylation of TBK1",[2],positive
"Nc1ncnc2c1ncn2[C@@H]1O[C@@H]2COP(=O)(O)OC3C(O)[C@H](n4cnc5cc(Cl)c(Cl)cc54)O[C@@H]3COP(=O)(O)OC2C1F (stereo partly shown) [Compound 81, cyclic (2′-fluoro-2′-deoxyadenosine-(3′ −> 5′)-monophosphate-5,6-dichlorobenzimidazole riboside-(3′ −> 5′)-monophosphate)]","SEAP activity, elevated OD at 625 nm, concentration-dependent",STING signalling pathway,positive
same,log k′g,[1],2.039
"O=c1[nH]cnc2c1ncn2[C@@H]1O[C@@H]2COP(=O)(O)OC3C(O)[C@H](n4cnc5ccccc54)O[C@@H]3COP(=O)(O)OC2C1F (stereo partly shown) [Compound 85, cyclic (2′-fluoro-2′-deoxyinosine-(3′ −> 5′)-monophosphate-benzimidazole riboside-(3′ −> 5′)-monophosphate)]",log k′g,[1],1.211
"Nc1nc2c(ncn2[C@@H]2O[C@@H]3COP(=O)(O)O[C@H]4[C@@H](O)[C@H](n5cnc6c(=O)[nH]c(N)nc65)O[C@@H]4COP(=O)(O)O[C@H]3[C@H]2O)c(=O)[nH]1 [c-diGMP, reference compound]",log k′g,[1],0.840

# From patent publication US11001605B2, “Cyclic dinucleotides containing benzimidazole, method for the production of same, and use of same to activate stimulator of interferon genes (sting)-dependent signaling pathways” (BIOLOG LIFE SCIENCE INSTITUTE GmbH & Co. KG, priority 2016, dated 2021)
